From PubChem BioAssay AID1845198 (Molecular Pharmacology Branch, DTP, NCI, 2023)

Tested on: 425362-245-T-J1 tumor spheroids, viability % test/control
Experiment: Anticancer human tumor 425362-245-T-J1 patient-derived melanoma cell line growth inhibition
Details: spheroids with HUVEC and MSC; for IC50: curve of first compound; for viability, T/C: stronger effect = lower value
How it was run: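 Complex spheroids of malignant cells with endothelial cells and mesenchymal stem cells; agents alone or combined, from near clinical Cmax (or 10 microM if unknown) down in half-log steps, 0.25% DMSO final.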

[1] = second compound 1 µM, first compound 0.00949 µM
[2] = second compound 1 µM, first compound 0.03 µM
[3] = second compound 1 µM, first compound 0.0949 µM
[4] = second compound 1 µM, first compound 0.3 µM
[5] = second compound 1 µM, first compound 0.949 µM
[6] = second compound 1 µM, first compound 3 µM
[7] = second compound 3.16 µM, first compound 0.00949 µM
[8] = second compound 3.16 µM, first compound 0.03 µM
[9] = second compound 3.16 µM, first compound 0.0949 µM
[10] = second compound 3.16 µM, first compound 0.3 µM
[11] = second compound 3.16 µM, first compound 0.949 µM
[12] = second compound 3.16 µM, first compound 3 µM
[13] = second compound 10 µM, first compound 0.00949 µM
[14] = second compound 10 µM, first compound 0.03 µM
[15] = second compound 10 µM, first compound 0.0949 µM
[16] = second compound 10 µM, first compound 0.3 µM
[17] = second compound 10 µM, first compound 0.949 µM
[18] = second compound 10 µM, first compound 3 µM
[19] = second compound 31.6 µM, first compound 0.00949 µM
[20] = second compound 31.6 µM, first compound 0.03 µM
[21] = second compound 31.6 µM, first compound 0.0949 µM
[22] = second compound 31.6 µM, first compound 0.3 µM
[23] = second compound 31.6 µM, first compound 0.949 µM
[24] = second compound 31.6 µM, first compound 3 µM
[25] = second compound 100 µM, first compound 0.00949 µM
[26] = second compound 100 µM, first compound 0.03 µM
[27] = second compound 100 µM, first compound 0.0949 µM
[28] = second compound 100 µM, first compound 0.3 µM
[29] = second compound 100 µM, first compound 0.949 µM
[30] = second compound 100 µM, first compound 3 µM
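Further: spheroids exposed to agents for 7 days.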

| Compound | IC50 (second compound 1 µM) [nM] | IC50 (second compound 3.16 µM) [nM] | IC50 (second compound 10 µM) [nM] | IC50 (second compound 31.6 µM) [nM] | IC50 (second compound 100 µM) [nM] | viability, T/C [3] [%] | viability, T/C [4] [%] | viability, T/C [5] [%] | viability, T/C [6] [%] | viability, T/C [9] [%] | viability, T/C [10] [%] | viability, T/C [11] [%] | viability, T/C [12] [%] | viability, T/C [15] [%] | viability, T/C [16] [%] | viability, T/C [17] [%] | viability, T/C [18] [%] | viability, T/C [21] [%] | viability, T/C [22] [%] | viability, T/C [23] [%] | also measured |
| --- | --- | --- | --- | --- | --- | --- | --- | --- | --- | --- | --- | --- | --- | --- | --- | --- | --- | --- | --- | --- | --- |
| CNCc1ccc(-c2cc(-c3nc(-c4ccc(S(=O)(=O)C(C)C)cc4)cnc3N)on2)cc1 + Cn1nnc2c(C(N)=O)ncn2c1=O | 82.2 | 142 | 120 | 109 | 63.7 | 45.2 | 6.29 | 3.41 | 0.13 | 72.2 | 9.15 | 3.94 | 0.13 | 61 | 9.28 | 2.96 | 0.12 | 56.2 | 7.24 | 2.97 | viability, T/C [1]: 103%; viability, T/C [2]: 89.2%; viability, T/C [7]: 99.2%; viability, T/C [8]: 93.1%; viability, T/C [13]: 111%; viability, T/C [14]: 101%; viability, T/C [19]: 95.4%; viability, T/C [20]: 105%; viability, T/C [24]: 0.11%; viability, T/C [25]: 92.7%; viability, T/C [26]: 81.9%; viability, T/C [27]: 33.1%; viability, T/C [28]: 4.28%; viability, T/C [29]: 4.13%; viability, T/C [30]: 0.16% |
| Cc1sc2c(c1C)C(c1ccc(Cl)cc1)=NC(CC(=O)Nc1ccc(O)cc1)c1nnc(C)n1-2 (stereo not given) + Cn1nnc2c(C(N)=O)ncn2c1=O | 82.7 | 86.4 | 108 | 108 | 85.7 | 44.5 | 11.4 | 4.19 | 4.22 | 47.6 | 15.7 | 3.45 | 2.88 | 57.5 | 8.87 | 3.57 | 2.37 | 54.1 | 16.9 | 4 | viability, T/C [1]: 85.8%; viability, T/C [2]: 86.8%; viability, T/C [7]: 110%; viability, T/C [8]: 86.2%; viability, T/C [13]: 106%; viability, T/C [14]: 90%; viability, T/C [19]: 103%; viability, T/C [20]: 92%; viability, T/C [24]: 2.29%; viability, T/C [25]: 84.8%; viability, T/C [26]: 90.5%; viability, T/C [27]: 45.6%; viability, T/C [28]: 10.6%; viability, T/C [29]: 3.44%; viability, T/C [30]: 1.57% |
| Cn1ncnc1[C@H]1c2n[nH]c(=O)c3cc(F)cc(c23)N[C@@H]1c1ccc(F)cc1 + Cn1nnc2c(C(N)=O)ncn2c1=O | 24.5 | 13.5 | 12.6 | < 9.49 | < 9.49 | 27 | 12.1 | 9.08 | 2.19 | 19.1 | 14.3 | 7.67 | 2.76 | 15.8 | 13.2 | 7 | 3.32 | 9.07 | 7.7 | 5.14 | viability, T/C [1]: 59.9%; viability, T/C [2]: 48.6%; viability, T/C [7]: 54.8%; viability, T/C [8]: 40.1%; viability, T/C [13]: 57.8%; viability, T/C [14]: 26.8%; viability, T/C [19]: 27.6%; viability, T/C [20]: 12%; viability, T/C [24]: 2.14%; viability, T/C [25]: 7.96%; viability, T/C [26]: 7.44%; viability, T/C [27]: 5.25%; viability, T/C [28]: 4.75%; viability, T/C [29]: 4.31%; viability, T/C [30]: 2.46% |
| O=C(c1cc(Cc2n[nH]c(=O)c3ccccc23)ccc1F)N1CCN(C(=O)C2CC2)CC1 + Cn1nnc2c(C(N)=O)ncn2c1=O | 3100 | 3280 | 2520 | 2040 | 233 | 88.6 | 86.2 | 71.6 | 55.6 | 97.8 | 87.7 | 83.5 | 54.6 | 101 | 85.2 | 80.2 | 45.8 | 96.5 | 83.8 | 69.7 | viability, T/C (second compound 1 µM, first compound 9.49 µM): 12%; viability, T/C (second compound 1 µM, first compound 30 µM): 6.69%; viability, T/C (second compound 3.16 µM, first compound 9.49 µM): 12.8%; viability, T/C (second compound 3.16 µM, first compound 30 µM): 7.75%; viability, T/C (second compound 10 µM, first compound 9.49 µM): 13.1%; viability, T/C (second compound 10 µM, first compound 30 µM): 6.66%; viability, T/C [24]: 44.4%; viability, T/C (second compound 31.6 µM, first compound 9.49 µM): 6.18%; viability, T/C (second compound 31.6 µM, first compound 30 µM): 6.01%; viability, T/C [27]: 68.1%; viability, T/C [28]: 43.8%; viability, T/C [29]: 26.7%; viability, T/C [30]: 10%; viability, T/C (second compound 100 µM, first compound 9.49 µM): 4.29%; viability, T/C (second compound 100 µM, first compound 30 µM): 3.96% |
